Measurements from PubChem BioAssay (NCI).
Values joined by “and” are separate entries in the source; they are usually repeats but may differ in a detail not shown here. Equal values may be shown once.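 Exposure lasted 48 hours, with cells grown in 96-well plates and compounds tested at five concentrations. At the GI50, growth is halved. TGI marks complete inhibition of growth.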

Tests used:
Assay in all cases: NCI tumour cell line growth inhibition, 48 h
[1] = tested on: MDA-N
[2] = tested on: HCT-15 colon
[3] = tested on: CAKI-1 renal
[4] = tested on: IGROV1 ovarian
[5] = tested on: SF-295 CNS
[6] = tested on: OVCAR-3 ovarian
[7] = tested on: M14 melanoma
[8] = tested on: MCF7 breast
[9] = tested on: HS 578T breast
[10] = tested on: MALME-3M melanoma
[11] = tested on: EKVX NSCLC
[12] = tested on: SNB-19 CNS
[13] = tested on: SK-MEL-2 melanoma
[14] = tested on: KM12 colon
[15] = tested on: NCI/ADR-RES ovarian
[16] = tested on: RXF 393 renal
[17] = tested on: BT-549 breast

Row | Compound | TGI [1] | TGI [2] | TGI [3] | TGI [4] | TGI [5] | TGI [6] | TGI [7] | TGI [8] | TGI [9] | TGI [10] | TGI [11] | TGI [12] | TGI [13] | TGI [14] | TGI [15] | TGI [16] | GI50 [16] | TGI [17]
1 | CCOC(=O)NC(C(=O)OCC)C(F)(F)F (stereo not drawn) | > 100 µM | > 100 µM | > 100 µM | > 100 µM | > 100 µM | > 100 µM | > 100 µM | > 100 µM | > 100 µM | > 100 µM | > 100 µM | > 100 µM | > 100 µM | > 100 µM | > 100 µM |  |  | 
2 | CN=CN(C)c1c2ccccc2nc2ccccc12 | > 100 µM | > 100 µM | > 100 µM | > 100 µM | > 100 µM | > 100 µM | > 100 µM | > 100 µM | > 100 µM | > 100 µM | > 100 µM | > 100 µM | > 100 µM | > 100 µM | > 100 µM | > 100 µM |  | 
3 | C=C[C@H]1CC[C@H]2[C@@H]3CC=C4C[C@@H](OC5OCC(O)C(O)C5O)CC[C@]4(C)[C@H]3CC[C@]12C (stereo partly drawn) | 65.8 µM | > 100 µM | 23.8 µM | 45.2 µM | 29.7 µM | 25.5 µM | 40.9 µM | > 100 µM | 48.3 µM |  |  | 65.9 µM | 34.5 µM | 31.8 µM | 38.1 µM |  |  | 
4 | COc1cc(NCc2ccc3nc(-c4ccccc4)c(N)nc3c2)cc(OC)c1OC | > 100 µM | > 100 µM | 85.8 µM | > 100 µM | 92.7 µM | 82.7 µM | 37.8 µM | 55.9 µM |  | 65.9 µM | > 100 µM | > 100 µM | > 100 µM | 54.5 µM | 57.8 µM | 58.9 µM |  | 
5 | COc1cc(C2c3cc4c(cc3[C@@H](NCCN3CCCCC3)C3COC(=O)[C@H]23)OCO4)cc(OC)c1O (stereo partly drawn) |  | 2.26 µM and 2.15 µM |  | 4.56 µM and 7.55 µM | 0.881 µM | 3.52 µM and 3.72 µM | 1.44 µM and 2 µM |  |  | 2.59 µM and 3.44 µM | 5.28 µM and 5.71 µM | > 100 µM and 36.7 µM | 4.92 µM and 4.65 µM | 3.8 µM and 3.88 µM |  | 1.98 µM and 4.14 µM | 0.243 µM and 1.27 µM | 
6 | C#CCOCn1ccc(=O)[nH]c1=O | > 100 µM | > 100 µM | > 100 µM | > 100 µM | > 100 µM |  | > 100 µM | > 100 µM | > 100 µM | > 100 µM | > 100 µM | > 100 µM | > 100 µM | > 100 µM | > 100 µM |  |  | 
7 | CN(C(=O)c1ccc(Cl)cc1)C(=S)N1CCN(c2ccccn2)CC1 |  | > 100 µM | > 100 µM | > 100 µM | > 100 µM | > 100 µM | > 100 µM |  |  | > 100 µM |  | > 100 µM | > 100 µM | > 100 µM |  | > 100 µM |  | 
8 | COc1ccc(C(=O)c2sc(Nc3ccccc3)nc2N)cc1 |  | > 100 µM |  | > 100 µM | > 100 µM | > 100 µM | > 100 µM | > 100 µM | > 100 µM | > 100 µM | > 100 µM | > 100 µM | > 100 µM |  | > 100 µM | > 100 µM |  | > 100 µM
9 | Nc1ccc(C(=O)NN2C(=O)C(Cl)C2c2cc(Br)ccc2O)cc1 (stereo not drawn) |  | > 100 µM | > 100 µM | 94.3 µM | > 100 µM | > 100 µM | > 100 µM |  |  | > 100 µM | > 100 µM | > 100 µM |  | > 100 µM |  |  |  | 
10 | COc1cc(Cl)cc(N(O)C(C)=O)c1OCc1ccccc1 |  | > 100 µM | > 100 µM | > 100 µM | > 100 µM | > 100 µM | > 100 µM |  |  | > 100 µM | > 100 µM | > 100 µM |  | > 100 µM |  | > 100 µM |  | 
11 | C(=Nc1ccc(-c2cc(-c3ccccc3)nc3ccc4ccccc4c23)cc1)c1ccccc1 | > 100 µM | > 100 µM | 75.4 µM | > 100 µM | 48.8 µM | 68.9 µM | 50.4 µM | > 100 µM | 68.6 µM | > 100 µM | 92.8 µM | 58 µM |  | 68 µM | > 100 µM | 47.9 µM |  | 
12 | COC(=O)C1=C(C(=O)OC)C2C(C)=CC(C)=CN2C(C#N)=C(SC)S1 (stereo not drawn) |  | 44 µM | 41.5 µM |  | > 100 µM | 72.7 µM | 35.2 µM |  |  | 48.3 µM | 64.9 µM | > 100 µM | 45.8 µM |  |  | 30.6 µM |  | 
13 | NC1=NNC2(C(=O)N1)c1ccccc1-c1ccccc12 | > 10 µM | > 10 µM | > 10 µM | > 10 µM | > 10 µM | > 10 µM | > 10 µM | > 10 µM |  | > 10 µM |  | > 10 µM | > 10 µM | > 10 µM | > 10 µM | > 10 µM |  | 
14 | N#CCC(=O)c1cc(OCc2cc(OCc3ccc(Br)cc3)cc(OCc3ccc(Br)cc3)c2)cc(OCc2cc(OCc3ccc(Br)cc3)cc(OCc3ccc(Br)cc3)c2)c1 | > 100 µM | > 100 µM | > 100 µM |  | > 100 µM | > 100 µM | > 100 µM | > 100 µM |  | > 100 µM | > 100 µM | > 100 µM | > 100 µM | > 100 µM | > 100 µM |  |  | > 100 µM
15 | COc1cccc(Nc2nc(-c3cccs3)nc3ccc(Br)cc23)c1 |  | > 100 µM | > 100 µM | > 100 µM | > 100 µM | > 100 µM | > 100 µM | 63.8 µM | > 100 µM | > 100 µM | > 100 µM | 78.7 µM | > 100 µM | > 100 µM | > 100 µM |  |  | > 100 µM
16 | COP(=O)(OC)C(=NCc1ccccc1)NNc1ccc([N+](=O)[O-])cc1 |  | > 100 µM | > 100 µM | > 100 µM | 67.4 µM | > 100 µM | 53.7 µM |  |  | > 100 µM |  |  | 52.9 µM | > 100 µM |  |  |  | 
17 | CSc1nc(-c2ccc(C)cc2)c(C#N)c(=O)[nH]1 |  | > 100 µM | > 100 µM | > 100 µM | > 100 µM | > 100 µM | > 100 µM | > 100 µM | > 100 µM |  | > 100 µM | > 100 µM | > 100 µM | > 100 µM | > 100 µM | > 100 µM |  | > 100 µM
